Results published in EP3981864A1, “DETERGENT COMPOSITION” (priority 2020, dated 2022).

Legend:
[1] = test system: Phaeosphaeria nodorum αDOX (SEQ ID NO: 2), fatty acid alpha-dioxygenase, Q0URU2, N-terminal His-tag variant SEQ ID NO: 251; test: Alpha-dioxygenase activity assay (oxygen consumption, TON); type: biochemical; conditions: fatty acid 100 µM, enzyme 6 ppm, 50 mM HEPES pH 9.0, 37°C; initial rate of oxygen consumption / enzyme concentration
From the text: (§1) Phaeosphaeria nodorum αDOX (SEQ ID NO: 2) is a fatty acid alpha-dioxygenase that converts fatty acids into the corresponding 2-hydroperoxy fatty acids and is included as an example of the present invention. A codon optimized gene (SEQ ID NO: 250) encoding for an alpha-dioxygenase variant (SEQ ID NO: 251), including an N-terminal amino acid sequence containing a His-tag was designed and synthesized by Genscript. After gene synthesis, the protein was expressed and purified. In brief, the complete synthetic gene sequence was subcloned into a pET30a vector using the NdeI/HindIII cloning sites. For heterologous expression, Escherichia coli BL21 (DE3) cells were transformed with the recombinant plasmid and a single colony was inoculated into LB medium containing kanamycin (50 mg/L). A pre-starter culture was then inoculated into flasks containing Magic Media (Thermo Fisher, Catalog # K6803) supplemented with kanamycin (50 mg/L) and incubated at 16 °C for 72 h. At an OD600nm = 0.5 - 1.0, 5-aminolevulinic acid (final concentration 0.5 mM) was added. Cells were harvested by centrifugation at 5000 rpm and 4°C and the pellet was lysed using a bacterial cell lysis buffer (B-PER - Themo Fisher, Waltham, MA). After centrifugation, the supernatant was collected, and the protein was purified by one-step purification using HisPur™ Ni-NTA Spin Columns (Thermo Scientific, Catalog # 88226) and standard protocols known in the art. The protein was concentrated using a 10 kDa MW cutoff Amicon Ultra centrifugal filter unit (Millipore Sigma, Catalog# UFC901024), followed by desalting using a disposable PD-10 desalting column (GE Healthcare Life Sciences, Catalog# 17085101) and a buffer containing 50 mM Tris-HCl, 500 mM NaCl, and 10% Glycerol at pH 8.0. […]
(§2) Reactions with alpha-dioxygenases were performed as follows. […] The reaction was incubated for up to 10 minutes at 37°C with 200 rpm agitation and the conversion was monitored using an oxygen sensor. The TON (in s-1) were calculated as the ratio between the initial rate of oxygen consumption (in µM/s) and the concentration of enzyme (in µM). […]

[2] = test system: Medicago truncatula αDOX (SEQ ID NO: 9), fatty acid alpha-dioxygenase, A4PRI0, N-terminal His-tag variant SEQ ID NO: 265 (comparative); test: as above; type: biochemical; conditions: fatty acid 100 µM, enzyme 6 ppm, 50 mM HEPES pH 9.0, 37°C; initial rate of oxygen consumption / enzyme concentration
From the text: as §1, with “Medicago truncatula αDOX” for “Phaeosphaeria nodorum αDOX”, “NO: 9)” for “NO: 2)”, “as a comparative” for “as an”, “NO: 264)” for “NO: 250)”, “NO: 265),” for “NO: 251),”
as §2

CCCCCCCC/C=C\CCCCCCCC(=O)O [Oleic Acid]
Oleic Acid, TON [1]: 0.99 s⁻¹
Oleic Acid, TON [2]: 0.06 s⁻¹

CCCCCCCCCCCCCCCC(=O)O [Palmitic Acid]
Palmitic Acid, TON [1]: 20.63 s⁻¹
Palmitic Acid, TON [2]: 0.57 s⁻¹

CCCCCCCCCCCCCCCCCC(=O)O [Stearic Acid]
Stearic Acid, TON [1]: 8.80 s⁻¹
Stearic Acid, TON [2]: 0.02 s⁻¹
